# Tested on: B16F10 melanoma cells
# Test: Cell viability assay (MTT) in B16F10 cells treated with α-MSH with or without aqua choice
# Assay type: cell-based, mouse
# Conditions: 100 nM, 24 hours of incubation
# Experimental: The mouse B16F10 melanoma cells were purchased from Bioresource Collection and Research Center (BCRC, Hsinchu, Taiwan) and cultured using Dulbecco's Modified Eagle Medium (DMEM, Gibco, MA, USA) supplemented with 10% fetal bovine serum and 1% antibiotics (100 units/mL penicillin, […], 0.25 μg/mL amphotericin) in a humidified atmosphere of 5% CO2 at 37° C. The control group was untreated with alpha-melanocyte-stimulating hormone (α-MSH) and aquachoice; The different treatment groups were all treated with α-MSH and different doses aquachoice.
# Cells were seeded at a density of […] in 96-well plate for 24 h and then treated with aqua choice at different concentrations for 24 and 48 h. At the end of the treatment, the medium was removed and 100 μL 3-(4,5-Dimethylthiazol-2-yl)-2,5-Diphenyltetrazolium bromide (MTT) solution (Sigma-Aldrich, USA) was treated. MTT reagent was cleanly removed after incubation in a 37° C. incubator for 3 hours, and then 100 μL of DMSO per well was added to dissolve all of the formazan generated in the wells. The result was measured by absorbance at 570 nm with an ELISA reader.
substance,measurement,value
alpha-melanocyte-stimulating hormone [α-MSH],increase in cell viability,~ 1.55 fold

# Reference: US12708601B2, “Mangosteen pericarp extract and process for its preparation thereof” (JUNHONG BIOTECHNOLOGY CO., LTD., priority 2020, dated 2026)
